The values that follow come from US11591341B2 (ALIGOS THERAPEUTICS, INC., priority 2019, dated 2023).

For this assay, the system named is HBV. In words: HBV-DNA Antiviral Assay Using HepG2.117 Cells (intracellular HBV DNA by qPCR). The class given is cell-based, hepatitis B virus (genotype D). Particulars: Hepatitis B virus, HepG2.117. Here is the method: The following assay procedure describes the HBV antiviral assay, using HepG2.117 cells, which carry a stably integrated genotype D HBV genome under the control of a Tet-off promoter, and intracellular HBV DNA quantification as endpoint. Cell viability is assessed in parallel by measuring the intracellular ATP content using ATPlite (Perkin Elmer).
On day 0, HepG2.117 cells (which are maintained in routine cell culture with doxycycline present in the medium at a final concentration of 1 μg/mL) were seeded in 96-well plates (white with clear bottom) at a density of 2.0×10^4 cells/well (0.1 mL/well) in medium without doxycycline to induce pgRNA transcription and subsequent formation of HBV particles. The cells were incubated at 37° C. and 5% CO2.
On day 1, medium was removed from each well, the test articles were diluted in culture medium without doxcycyline and 100 μL was added to cell culture wells (9 concentrations, 4-fold dilution). For each plate, 6 untreated (merely DMSO) wells were included. The final concentration of DMSO in the culture medium was 2%. Each plate was prepared in duplicate (one for HBV DNA extraction, one for ATPlite measurement). The cells were incubated at 37° C. and 5% CO2 for 3 days.
On day 4, cell viability was assessed using ATPlite and cell lysates were prepared for HBV DNA extraction and subsequent quantification by qPCR.
Medium was removed from each well and 100 μL of 0.33% NP-40 in H2O was added to each well. Plates were sealed, incubated at 4° C. for 5 mins, vortexed extensively and centrifuged briefly. Next, 35 μL of lysate was added to 65 μL QuickExtract DNA Extraction Solution (Epicentre) in a PCR plate for each well. PCR plate was incubated at 65° C. for 6 mins, 98° C. for 2 mins and finally cooled to 4° C. HBV DNA was then quantified by qPCR with HBV-specific primers and probes as specified in Table 3 using the Bio-Rad SSOAdvanced Universal Probes Supermix on a CFX96 machine (Bio-Rad). The PCR cycle program consisted of 95° C. for 3 mins, followed by 40 cycles at 95° C. for 10 sec and 60° C. for 30 sec.
A DNA standard was prepared by dilution of an IDT gBlock corresponding to the amplicon with concentrations ranging from 10^2 to 10^8 copies/input (i.e. per 4 μL) and used to generate a standard curve by plotting Cq values vs. HBV DNA standard concentration. The quantity of HBV DNA in each sample was determined by interpolating from the standard curve.
Cell viability was calculated as follows: % Cell viability=(luminescence value of test sample)/(average luminescence value of 2% DMSO control)×100%. HBV DNA inhibition was calculated as follows: 100−(HBV DNA copy number of test sample)/(average HBV DNA copy number of 2% DMSO control)×100%. No normalization to entecavir was required due to the excellent dynamic window of this assay. The CC50, EC50 and EC90 values were determined by dose-response curves fitted by GraphPad Prism using “log (agonist) vs. response—Variable slope”.
On the technique in general: In qPCR the cycle at which signal appears reflects the starting amount.
What is called EC50 is the midpoint of the concentration-response curve. The low end stands for an effect from little substance, the high end for a need for much substance. Turning to `C[C@H]1Cn2c(c(C(=O)NCc3ccccc3)n(-c3ccc(OC4CC4)cc3)c2=O)CN1C(=O)c1ccc(Br)c(Cl)c1` (racemic) [Example 302, rac-(6S)-N-benzyl-7-(4-bromo-3-chloro-benzoyl)-2-[4-(cyclopropoxy)phenyl]-6-methyl-3-oxo-6,8-dihydro-5H-imidazo[1,5-a]pyrazine-1-carboxamide], the EC50 was 100 to 500 nM.

Turning to `C[C@@H](NC(=O)c1c2n(c(=O)n1-c1ccc(OC3CC3)cc1)CCN(C(=O)c1ccc(Br)c(Cl)c1)C2)c1ccc(OC(F)F)cc1F` (racemic) [Example 313, 7-(4-bromo-3-chloro-benzoyl)-2-[4-(cyclopropoxy)phenyl]-3-oxo-N-[rac-(1R)-1-[4-(difluoromethoxy)-2-fluoro-phenyl]ethyl]-6,8-dihydro-5H-imidazo[1,5-a]pyrazine-1-carboxamide], the EC50 fell in the range of 100 to 500 nM. To `CC(NC(=O)c1c2n(c(=O)n1-c1ccc(OC3CC3)cc1)CCN(C(=O)c1ccc(Br)c(Cl)c1)C2)c1ccc(OC(F)F)cc1F` (racemic) [Example 314, 7-(4-bromo-3-chloro-benzoyl)-2-[4-(cyclopropoxy)phenyl]-3-oxo-N-[rac-(1S)-1-[4-(difluoromethoxy)-2-fluoro-phenyl]ethyl]-6,8-dihydro-5H-imidazo[1,5-a]pyrazine-1-carboxamide] belongs 100 to 500 nM. To `CC1Cn2c(c(C(=O)N[C@H](C)c3ccccc3F)n(-c3ccc(OC4CC4)cc3)c2=O)CN1C(=O)c1ccc(Br)c(Cl)c1` (mixture of isomers) [Example 321, (6RS)-7-(4-bromo-3-chloro-benzoyl)-2-[4-(cyclopropoxy)phenyl]-N-[(1R)-1-(2-fluorophenyl)ethyl]-6-methyl-3-oxo-6,8-dihydro-5H-imidazo[1,5-a]pyrazine-1-carboxamide] belongs 500 to 5000 nM; to `CC1Cn2c(c(C(=O)N[C@@H](C)c3ccccc3F)n(-c3ccc(OC4CC4)cc3)c2=O)CN1C(=O)c1ccc(Br)c(Cl)c1` (mixture of isomers) [Example 334, (6SR)-7-(4-bromo-3-chloro-benzoyl)-2-[4-(cyclopropoxy)phenyl]-N-[(1S)-1-(2-fluorophenyl)ethyl]-6-methyl-3-oxo-6,8-dihydro-5H-imidazo[1,5-a]pyrazine-1-carboxamide], 100 to 500 nM; to `CC(NC(=O)c1c2n(c(=O)n1-c1ccc(OC3CC3)cc1)CCN(C(=O)c1ccc(Br)c(Cl)c1)C2)c1ccc(C#N)cc1F` (racemic) [Example 340, 7-(4-bromo-3-chloro-benzoyl)-2-[4-(cyclopropoxy)phenyl]-3-oxo-N-[rac-(1S)-1-(4-cyano-2-fluoro-phenyl)ethyl]-6,8-dihydro-5H-imidazo[1,5-a]pyrazine-1-carboxamide], 100 to 500 nM. The compound `C[C@@H](NC(=O)c1c2n(c(=O)n1-c1ccc(OC3CC3)cc1)CCN(C(=O)c1ccc(Br)c(Cl)c1)C2)c1ccc(C#N)cc1F` (racemic) [Example 341, 7-(4-bromo-3-chloro-benzoyl)-2-[4-(cyclopropoxy)phenyl]-3-oxo-N-[rac-(1R)-1-(4-cyano-2-fluoro-phenyl)ethyl]-6,8-dihydro-5H-imidazo[1,5-a]pyrazine-1-carboxamide] displayed an EC50 of 500 to 5000 nM. To `CC(NC(=O)c1c2n(c(=O)n1-c1ccc(OCC(F)(F)F)cc1)CCN(C(=O)c1ccc(Br)c(Cl)c1)C2)c1ccc(OC2COC2)cc1F` (racemic) [Example 348, 7-(4-bromo-3-chloro-benzoyl)-3-oxo-N-[rac-(1R)-1-[2-fluoro-4-(oxetan-3-yloxy)phenyl]ethyl]-2-[4-(2,2,2-trifluoroethoxy)phenyl]-6,8-dihydro-5H-imidazo[1,5-a]pyrazine-1-carboxamide] belongs 500 to 5000 nM; to `C[C@H](NC(=O)c1c2n(c(=O)n1-c1ccc(OC3CC3)cc1)CCN(C(=O)c1ccc(Br)c(Cl)c1)C2)c1ccc(OCC(N)=O)cc1-n1cccn1` (racemic) [Example 378, 7-(4-bromo-3-chloro-benzoyl)-2-[4-(cyclopropoxy)phenyl]-3-oxo-N-[rac-(1S)-1-[4-(2-amino-2-oxo-ethoxy)-2-pyrazol-1-yl-phenyl]ethyl]-6,8-dihydro-5H-imidazo[1,5-a]pyrazine-1-carboxamide], more than 5000 nM; to `CC(NC(=O)c1c2n(c(=O)n1-c1ccc(OC3CC3)cc1)CCN(C(=O)c1ccc(Br)c(Cl)c1)C2)c1ccc(OCC(N)=O)cc1-n1cccn1` (racemic) [Example 379, 7-(4-bromo-3-chloro-benzoyl)-2-[4-(cyclopropoxy)phenyl]-3-oxo-N-[rac-(1R)-1-[4-(2-amino-2-oxo-ethoxy)-2-pyrazol-1-yl-phenyl]ethyl]-6,8-dihydro-5H-imidazo[1,5-a]pyrazine-1-carboxamide], more than 5000 nM. To `CC(NC(=O)c1c2n(c(=O)n1-c1ccc(OC3CC3)cc1)CCN(C(=O)c1ccc(Br)c(Cl)c1)C2)c1cccc2nccnc12` (racemic) [Example 382, 7-(4-bromo-3-chloro-benzoyl)-2-[4-(cyclopropoxy)phenyl]-3-oxo-N-[rac-(1S)-1-quinoxalin-5-ylethyl]-6,8-dihydro-5H-imidazo[1,5-a]pyrazine-1-carboxamide] belongs less than 100 nM; to `C[C@@H](NC(=O)c1c2n(c(=O)n1-c1ccc(OC3CC3)cc1)CCN(C(=O)c1ccc(Br)c(Cl)c1)C2)c1cccc2nccnc12` (racemic) [Example 383, 7-(4-bromo-3-chloro-benzoyl)-2-[4-(cyclopropoxy)phenyl]-3-oxo-N-[rac-(1R)-1-quinoxalin-5-ylethyl]-6,8-dihydro-5H-imidazo[1,5-a]pyrazine-1-carboxamide], 100 to 500 nM; to `CC(Oc1ccc(CNC(=O)c2c3n(c(=O)n2-c2ccc(OC4CC4)cc2)CCN(C(=O)c2ccc(Br)c(Cl)c2)C3)c(F)c1)C(N)=O` (racemic) [Example 394, 7-(4-bromo-3-chloro-benzoyl)-2-[4-(cyclopropoxy)phenyl]-N-[[2-fluoro-4-[rac-(1S)-2-amino-1-methyl-2-oxo-ethoxy]phenyl]methyl]-3-oxo-6,8-dihydro-5H-imidazo[1,5-a]pyrazine-1-carboxamide], 100 to 500 nM. To `C[C@@H](Oc1ccc(CNC(=O)c2c3n(c(=O)n2-c2ccc(OC4CC4)cc2)CCN(C(=O)c2ccc(Br)c(Cl)c2)C3)c(F)c1)C(N)=O` (racemic) [Example 406, 7-(4-bromo-3-chloro-benzoyl)-2-[4-(cyclopropoxy)phenyl]-N-[[2-fluoro-4-[rac-(1R)-2-amino-1-methyl-2-oxo-ethoxy]phenyl]methyl]-3-oxo-6,8-dihydro-5H-imidazo[1,5-a]pyrazine-1-carboxamide] belongs 100 to 500 nM; to `COc1ccc(C(C)NC(=O)c2c3n(c(=O)n2-c2ccc(-n4cccn4)cc2)CCN(C(=O)c2ccc(Br)c(Cl)c2)C3)c(F)c1` (racemic) [Example 413, 7-(4-bromo-3-chloro-benzoyl)-3-oxo-2-(4-pyrazol-1-ylphenyl)-N-[rac-(1R)-1-(2-fluoro-4-methoxy-phenyl)ethyl]-6,8-dihydro-5H-imidazo[1,5-a]pyrazine-1-carboxamide], less than 100 nM. `C[C@@H]1CN(c2ccc(-n3c(C(=O)NCc4ccccc4)c4n(c3=O)CCN(C(=O)c3ccc(Br)c(Cl)c3)C4)cc2)CCO1` (racemic) [Example 416, N-benzyl-7-(4-bromo-3-chloro-benzoyl)-3-oxo-2-[4-[rac-(2R)-2-methylmorpholin-4-yl]phenyl]-6,8-dihydro-5H-imidazo[1,5-a]pyrazine-1-carboxamide] had an EC50 of 100 to 500 nM.

The compound `O=C(NCc1ccccc1)c1c2n(c(=O)n1-c1ccc(N3CCO[C@H](C(F)(F)F)C3)cc1)CCN(C(=O)c1ccc(Br)c(Cl)c1)C2` (racemic) [Example 417, N-benzyl-7-(4-bromo-3-chloro-benozyl)-3-oxo-2-[4-[rac-(2S)-2-(trifluoromethyl)morpholin-4-yl]phenyl]-6,8-dihydro-5H-imidazo[1,5-a]pyrazine-1-carboxamide] gave an EC50 of 100 to 500 nM. To `COc1ccc(C(C)NC(=O)c2c3n(c(=O)n2-c2ccc(OC4CC4)cc2)CCN(C(=O)c2ccc(Br)c(Cl)c2)C3)c(F)c1` (racemic) [Example 420, 7-(4-bromo-3-chloro-benzoyl)-2-[4-(cyclopropoxy)phenyl]-3-oxo-N-[rac-(1R)-1-(2-fluoro-4-methoxy-phenyl)ethyl]-6,8-dihydro-5H-imidazo[1,5-a]pyrazine-1-carboxamide] belongs less than 100 nM.
